From patent US9040713B2, “Methods of managing blood sugar levels and compositions related thereto” (EMORY UNIVERSITY, priority 2010, dated 2015)

Legend:
wild-type MEF cells = assay: [3H] 2-deoxyglucose transport in wild-type MEF cells; assay type: cell-based, mouse; conditions: insulin 100 nM 15 min or compound 5 μM 30 min
Experimental: Insulin signaling in the cell lysates were tested by immunoblotting. (B) DDN stimulates glucose uptake. […] [3H]2-deoxyglucose was then added, and the cells were further incubated for 10 min. [3H]2-deoxyglucose uptake by adipocytes was measured by scintillation counting (*: P<0.05 **: P<0.01 vs control, Student's t-test, n=3). (C) DDN synergizes insulin's signaling. […] Cell lysates were then prepared for Western blot using specific antibodies as indicated. […] 3H-2-deoxyglucose was then added, and the cells were further incubated for 10 min. 3H-2-deoxyglucose uptake by adipocytes was measured by scintillation counting (*: P<0.05; **: P<0.01, Student's t-test, n=3). (E) IR is necessary for DDN to induce ERK phosphorylation. Differentiated 3T3-L1 adipocytes were transfected with control siRNA or siRNA against IR. […] Cell lysates were analyzed by Western blot. (F) The glucose uptake induced by DDN in p85α knockout MEF cells. […] The uptake of 3H-2-deoxyglucose was monitored by liquid scintillation counting (*: P<0.05; **: P<0.01 vs control, Student's t-test, n=3).
(A) 4524-E7 activates IR phosphorylation and its downstream signaling in 3T3-L1 adipocytes. […] The cells were lysed, and immunoprecipitated with PY20, and followed by Western blot using specific antibodies. (B) 4524-E7 stimulates glucose uptake in 3T3-L1 adipocytes. […] [3H]2-deoxyglucose was added, and the cells were further incubated for 10 min. The amount of [3H]2-deoxyglucose taken by adipocytes was measured. (C) 4524-E7 inhibits fatty acid oxidation. […] Results were normalized to DMSO-treated cells and expressed as mean±S.E.M. (*: P<0.05; **:P<0.01, Student's t-test, n=3). (D) IR knockdown in adipocytes decreases IR signaling by 4524-E7. […] Cells lysates were collected and analyzed by Western blot. […] 2-deoxyglucose was monitored by liquid scintillation counter. Results were expressed as mean±S.E.M. (*: P<0.05; **:P<0.01, Student's t-test, n=3).
NIH 3T3-L1 preadipocytes and MEFs were grown in standard media. […] After neutralization, radioactivity was measured by scintillation counting

C57BL/6J mice = assay: Blood glucose level test in C57BL/6J mice; assay type: in vivo, mouse; conditions: for time until decrease of blood glucose: DDN 20 mg/kg oral, insulin 1 U/kg i.p.
Experimental: (A) DDN reduces blood glucose in C57BL/6J mice. […] Blood glucose was monitored before and after dosing at various time points as indicated (*: P<0.05, **: P<0.01; ***: P<0.001, n=10-13, Two-way ANOVA vs vehicle). (B) DDN provokes IR phosphorylation and its downstream signaling in C57BL/6J mice. Three month-old C57BL/6J mice were starved for 12 h and then orally administrated with vehicle (0.5% methylcellulose), DDN (20 mg/kg) or 2NH2-NQ (20 mg/kg). Cell lysates were prepared from liver and muscle tissues collected at 3, 4, and 5 h after drug administration and analyzed by immunoprecipitation and immunoblotting. (C) DDN quickly activates IR phosphorylation and its downstream signaling. Three-month-old C57BL/6J mice were starved for 12 h and then injected with vehicle, 5 mg/kg DDN or 5 mg/kg 2NH2-NQ through vena cava. After 5 min, the liver was collected and analyzed by immunobloting using specific antibodies.
(§1) (A) 4524-E7 provokes IR phosphorylation in various tissues of mice. Three-month-old C57BL/6J mice were starved for 12 h and then dosed with vehicle (0.5% methylcellulose) or 4524-E7 (20 mg/kg). Cell lysates from liver, muscle, and WAT were prepared at 3, 4, and 5 h after drug administration and analyzed by immunoblotting. (B) Basal and insulin-stimulated hepatic glucose production rates were measured by hyperinsulinemic-euglycemic clamp. […] (C) Hypoglycemic effect of 4524-E7 in C57BL/6J mice. C57BL/6J mice were starved for 12 h and then orally administrated with vehicle (0.5% methylcellulose) or 4524-E7 (5 mg/kg). Blood glucose was monitored at different time points as indicated (n=8, *: P<0.05, two-way ANOVA). (D) Hypoglycemic effect in db/db mice. db/db mice were starved for 12 h and then orally injected with vehicle (0.5% methylcellulose) or 4524-E7 (5 mg/kg). Blood glucose was monitored at different time points as indicated (n=5, *: P<0.05, two-way ANOVA). (E) Glucose tolerance test in ob/ob mice. The mice were starved for 12 hours and then orally administrated with vehicle or 4524-E7 (5 mg/kg). A bonus of glucose (2 gm/kg) was injected intraperitoneally 1 hour later. Blood glucose was then measured at 30 min intervals (n=13, *: P<0.05; **: P<0.01, two-way ANOVA).
After a 12 h fasting, C57B5L/6J and db/db mice were bled from the tail vein for a baseline measurement with a glucometer (Accu-Chek; Roche Diagnostics, Indianapolis, Ind.). Afterward, animals were orally administered 5 mg/kg compound in 0.5% methylcellulose through a feeding needle. Blood glucose levels were measured at hourly intervals over 5 h.

db/db mice = assay: Blood glucose level test in db/db mice; assay type: in vivo, mouse; conditions: for duration of blood glucose lowering effect: DDN 5 mg/kg oral, insulin 1 U/kg i.p.
Experimental: Three-month-old mice were starved for 12 h and then orally administrated with vehicle (0.5% methylcellulose) or DDN (5 mg/kg). Cell lysates were prepared from liver and muscle tissues collected at 1 and 2 h after drug administration and analyzed by immunoprecipitation and immunoblotting. […] Three-month-old mice were starved for 12 h and then orally administrated with vehicle (0.5% methylcellulose) or DDN (5 mg/kg). Cell lysates were prepared from liver and muscle tissues collected at 1 and 2 h after drug administration and analyzed by immunoprecipitation and immunoblotting. (C) Hypoglycemic function of DDN in db/db mice. The animals were starved for 12 h and then orally injected with vehicle (0.5% methylcellulose) or DDN (5 mg/kg). […] Blood glucose was monitored before and after drug administration at 1-hour intervals (*: P<0.05, **: P<0.01, n=5, Two-way ANOVA vs vehicle). (D) DDN improves the glucose tolerance in ob/ob mice. The animals were starved for 12 h and then orally dosed with vehicle (0.5% methylcellulose) or DDN (5 mg/kg). […] A bonus of glucose (2 gm/kg) was injected intraperitoneally 1 hour later. Blood glucose was measured at 30-min intervals (*: P<0.05, **:P<0.01, n=5, Two-way ANOVA vs vehicle control).
as §1
After a 12 h fasting, C57B5L/6J and db/db mice were bled from the tail vein for a baseline measurement with a glucometer (Accu-Chek; Roche Diagnostics, Indianapolis, Ind.). […] Blood glucose levels were measured at hourly intervals over 5 h.

Question: Which results are given for `CC(=O)Oc1ccc(OC(C)=O)c2c1C(=O)C(Cl)=C(Cl)C2=O` [DDN, 5,8-diacetyloxy-2,3-dichloro-1,4-naphthoquinone]?
Answer: [3H]-2-deoxyglucose uptake (wild-type MEF cells): triggered robust 3H-deoxyglucose uptake; blood glucose as compared to vehicle control (C57BL/6J mice; 20 mg/kg oral, 12 h starved): significantly reduced blood glucose; time until decrease of blood glucose (C57BL/6J mice): 3 h; blood glucose as compared to vehicle control (db/db mice; 5 mg/kg oral, one h after administration): lower blood glucose was found in db/db mice; duration of blood glucose lowering effect (db/db mice): sustain till the end of the experiment

Question: “insulin: insulin, used as positive control” was tested. Which “[3H]-2-deoxyglucose uptake” value (wild-type MEF cells) did it give?
Answer: The value was “triggered robust [3H]-2-deoxyglucose uptake”.

Question: And the “time until decrease of blood glucose” value (C57BL/6J mice)?
Answer: The value was “Thirty min”.

Question: And the “duration of blood glucose lowering effect” value (db/db mice)?
Answer: Its value is 2 h.

Question: For `O=C1c2ccccc2C(=O)C2SC(Nc3ccc(Cl)cc3)=NC12` (centres unmarked) [4524-E7, 2-((4-chlorophenyl)amino)naphtho[2,3-d]thiazole-4,9(3aH,9aH)-dione], which “[3H]-2-deoxyglucose uptake” value (wild-type MEF cells) is on record?
Answer: Its value is “triggered robust [3H]-2-deoxyglucose uptake”.

Question: What about the blood glucose (C57BL/6J mice; 5 mg/kg single oral administration, 3˜4 h after) of the same compound?
Answer: The blood glucose was 70 % of basal level.

Question: And the blood glucose (db/db mice; 5 mg/kg oral, one hour after administration)?
Answer: Its blood glucose is “about 50 % of the initial value”.
